Results: US20060204547A1, “Drug delivery stent with extended in vivo release of anti-inflammatory” (Conor Medsystems, Inc., priority 2005, published 2006)

Experiment: in vivo Pimecrolimus release from stent implanted in porcine model, residual drug load by HPLC
Details: PLGA matrix reservoir stent, FIG. 4, porcine
From the text: In the example of FIG. 4, a stent is cut from a cobalt chromium alloy according to the pattern shown in FIGS. 1 and 2 and Pimecrolimus is loaded in a PLGA matrix within reservoirs in the stent. The drug and matrix are arranged for directional delivery of the drug primarily to the mural side of the stent. The in vivo drug release rate is programmed by providing different concentrations of drug in different regions of the matrix similar to the regions shown in FIG. 3, with a luminal region 50 of primarily PLGA, a middle region 60 of about 75% Pimecrolimus and about 25% PLGA, and a mural region 70 of about 95% Pimecrolimus and about 5% PLGA. The reservoirs are filled, by volume, with about 20-25% base or luminal region, 40-45% middle region, and 25-30% mural region. The in vivo drug releases described herein are normalized for a 3.0 mm diameter×16 mm long expanded stent which has almost 500 reservoirs and a total drug volume of about 0.54 mm^3.
The measurement of in vivo Pimecrolimus release from a stent can be performed according to the following Example. The in vivo release from other implantable medical devices can be performed in a similar manner by removal of tissue and measurement of total drug load and release kinetics by high pressure liquid chromatography (HPLC).
Stents are implanted in a porcine model and explanted at selected time points by removing the entire artery section. The expanded stents are labeled and frozen. The tissue is removed from the stent by slicing the tissue on the outside of the stent lengthwise, inverting the tissue, and removing the tissue by cutting and turning the tissue inside out. The stent may still be covered by a tough elastic membrane which is then removed by splitting the membrane and peeling it off the stent. For longer time points, there will also be a tube of tissue inside the stent. This tube is separated from the stent with tweezers, turned inside out and pulled out of the stent.
The following is the test procedure for generating the in vivo release curves for Pimecrolimus in FIG. 4.
The total drug load (TDL) of Pimecrolimus from a stent is determined by extracting all the polymer and drug from the stent in the solvent acetonitrile. The amount of Pimecrolimus in a solution sample is determined by High Pressure Liquid Chromatography (HPLC). The following conditions are used:
The in vivo release kinetic (RK) for Pimecrolimus from a stent is determined by running the TDL for multiple explanted time points. The TDL for the explanted samples is subtracted from the TDL of an unimplanted stent to determine the amount of Pimecrolimus released at each of the explanted time points.

SMILES: CC[C@@H]1/C=C(\C)C[C@H](C)C[C@H](OC)[C@H]2O[C@@](O)(C(=O)C(=O)N3CCCC[C@H]3C(=O)O[C@H](/C(C)=C/[C@@H]3CC[C@H](Cl)[C@H](OC)C3)[C@H](C)[C@@H](O)CC1=O)[C@H](C)C[C@@H]2OC [Pimecrolimus]
- in vivo cumulative release, percent of total Pimecrolimus loaded on stent (4 hour): about 10%
- in vivo cumulative release, percent of total Pimecrolimus loaded on stent (24 hour): about 25%
- in vivo cumulative release, percent of total Pimecrolimus loaded on stent (2 day): about 40%
- in vivo cumulative release, percent of total Pimecrolimus loaded on stent (8 day): about 50%
- in vivo cumulative release, percent of total Pimecrolimus loaded on stent (30 day): about 70%
- in vivo cumulative release, percent of total Pimecrolimus loaded on stent (50 day): about 70%
